{"source": "patent US20220308062A1", "about": "“METHODS FOR PREDICTING DRUG RESPONSIVENESS IN SAMPLES FROM CANCER SUBJECTS” (Board of Regents, The University of Texas System, priority 2019, published 2022)", "key": {"A549 and H2009 cells [1]": {"system": "A549 and H2009 cells", "assay": "CellTiter-Glo cell viability, TP-0903 and/or ruxolitinib", "type": "cell-based, human", "details": "20, 30 and 40 nmol/L, 72 hr", "protocol": "Cell lines. A549 and H2009 cell lines were obtained from and authenticated by the American Type Culture Collection, and routinely maintained in RPMI-1640 medium supplemented 10% FBS, penicillin (100 units/mL) and streptomycin ([…]) in aired with 5% CO^2 at 37° C. The absence of Mycoplasma contamination was validated using DAPI staining. […] The CellTiter-Glo Luminescent Cell Viability assay was used to determine cell responsiveness. shRNA knockdown was performed in A549 cells by using lentiviral delivery of short-hairpin AXL or vehicle plasmid pLKO.1 puro in two biological repeats (Addgene; Table 3)."}, "A549 cells": {"system": "A549 cells", "assay": "Proliferation assay (IncuCyte ZOOM), A549", "type": "cell-based", "details": "Homo sapiens, read-out: IC50 from proliferation curves", "protocol": "(§1) Analysis was performed using IncuCyte ZOOM (Essen BioScience) with images acquired every 3 hr for up to 72 hr. Four images (proliferation) and one image (wound healing) were captured per well for each time point. Data were normalized to controls, and values for 50% effective concentration were calculated using Prism V7.0 (GraphPad software, San Diego, Calif.).\n(§2) In vitro phenotypic assay. […] Proliferation and migration curves were generated using IncuCyte ZOOM (Essen BioScience) with images acquired every 3 hr over a 72 hr timeframe. Images were captured per well for each time point. Data were normalized to controls, and values for 50% inhibitory concentration were calculated using Prism V8.0 (GraphPad software)."}, "H2009 cells": {"system": "H2009 cells", "assay": "Proliferation assay (IncuCyte ZOOM), H2009", "type": "cell-based", "details": "Homo sapiens, NCI-H2009; read-out: IC50 from proliferation curves", "protocol": "as §1, §2"}, "two other TAM family": {"system": "two other TAM family", "details": "refs [21, 22]; concentration not given; cited from earlier work"}, "[2]": {"system": "A549, H2009 and H226 cell lines", "assay": "Wound healing (migration) assay", "type": "cell-based, human", "protocol": "as §1, §2"}, "[3]": {"system": "PMA-stimulated U937 macrophages cocultured with A549 or H2009", "assay": "U937 coculture with lung cancer cells, CyTOF", "type": "cell-based, human", "from_the_text": "Materials and methods. U937 coculture with lung cancer cells. […] The cells were harvested and fixed to process CyTOF staining. Antibodies were conjugated in-house according to the manufacturer's instructions or purchased in pre-conjugated forms from the supplier (Fluidigm). Single cells from cell lines were harvested and stained with cisplatin and metal-conjugated surface antibodies sequentially for viability and surface staining. After fixation and permeabilization, cells were stained with metal-conjugated antibodies. The cells were then labeled with an iridium-containing DNA intercalator (191Ir+ or 193Ir+) for identification of cell events before analysis on a Helios mass cytometer. Signals were bead-normalized using EQ Four Element Calibration Beads.\nSignals of samples were normalized using CyTOF software (Version 6.7.1014, Fluidigm). The generated files underwent signal cleanup and filtering for single cells using Cytobank (https://www.cytobank.org/). Macrophage population was gated out based on CD45 expression to generate Flow Cytometry Standard (FCS) file. The gated FCS file were downloaded for further analysis using Cytofkit. The PhenoGraph clustering algorithm in Cytofkit was implemented in R from the Bioconductor website (https://bioconductor.org/packages/cytofkit/). CyTOF data of macrophage were clustered and visualized using t-distributed stochastic neighbor embedding (t-SNE) algorithm based on normalized expression levels (Z-score) of 4 markers (CD14, CD16, CD163 and CD86)."}, "[4]": {"system": "patients with advanced tumors", "details": "early results, ref [21]; cited from earlier work"}, "A549 and H2009 cells [5]": {"system": "A549 and H2009 cells", "assay": "Western blot analysis", "type": "cell-based, human", "details": "H2009, traditional western blot (FIG. 8C)", "protocol": "Western blot analysis. […] Cell lysates were harvested using RIPA buffer. The concentration of protein lysates was determined by Pierce™ BCA Protein Assay Kit (Thermo fisher). Forty micrograms of the total protein extracts were separated by NuPAGE™ 4-12% Bis-Tris Protein Gels (Thermo fisher) and transferred to PVDF membrane. The membrane was then blocked with 5% of Blotting-Grade Blocker (BioRad) in TBST and probed using primary antibodies including: 1) oncogenic pathways: JAK1, pSTAT3, STAT3, pAKT and pERK1/2 (Cell Signaling Technology; 3344S, 9131S, 9139T, 4060, 4377S); 2) cancer stemness markers: CD133 and ALDH1A1 (Cell Signaling Technology; 64326S and 54135S); and 3) EMT markers: Vimentin (Novus; NBP1-92687), N-cadherin, EpCAM (Abcam; ab71916) and CK8/18 (Novus; NBP2-44930); 4) loading control: GAPDH (Cell Signaling Technology; 2118S). Membrane was incubated in HRP-linked secondary antibodies following dilution with TBST (1:5000) at room temperature for one hour. Blots were developed using Western Lightning Plus-ECL Chemiluminescent Reagents (Perkin Elmer, Waltham, Mass.) and Syngene G:BOX Imaging System."}, "[6]": {"system": "patient-derived organoids (PDOs)", "assay": "Patient-derived organoid CellTiter-Glo cell viability", "type": "cell-based, human", "protocol": "Patient-derived organoids (PDOs). Tumor tissues were minced on ice into 1 mm^3 small pieces. Tumor pieces (˜20 μl in volume) were resuspended in 200 μl Matrigel and seeded into 24 well plates for 15 min until gel solidify, followed by culture in advanced DMEM/F12 medium supplemented with B27 and N2 (Thermo Fisher Scientific), 0.01% BSA (Roche), 100 units/m penicillin-streptomycin (Thermo Fisher Scientific), and others (Table 4) for 4-8 weeks to grow organoids. […] The CellTiter-Glo Luminescent Cell Viability assay was used to determine drug responsiveness."}}, "data": [{"smiles": "CN1CCN(Cc2ccc(Nc3ncc(Cl)c(Nc4ccccc4S(=O)(=O)N(C)C)n3)cc2)CC1", "note": "[TP-0903]", "values": [{"measurement": "sensitivity (cell viability), A549 compared with H2009", "setting": "A549 and H2009 cells [1]", "result": "more sensitive"}, {"measurement": "IC50", "setting": "A549 cells", "result": 31.6, "unit": "nM"}, {"measurement": "IC50", "setting": "H2009 cells", "result": 35.5, "unit": "nM"}, {"measurement": "inhibition of two other TAM family", "setting": "two other TAM family", "result": 80, "unit": "%"}, {"measurement": "cytotoxicity based on cell morphology", "setting": "[2]; A549 and H2009, increasing concentrations", "result": "did not result in significant cytotoxicity"}, {"measurement": "migration potential", "setting": "[2]; increasing concentrations, 0-200 nM", "result": "significantly impeded"}, {"measurement": "high CD163 subpopulations", "setting": "[3]; 20, 40 and 80 nmol/L, increasing concentration", "result": "decreased"}, {"measurement": "CD14high/CD16+/CD163high/CD86high macrophage subtype proportion", "setting": "[3]; 72 hr coculture", "result": "decreased"}, {"measurement": "SMAD2 in CD14high/CD16+/CD163high/CD86high subtype", "setting": "[3]; 72 hr coculture", "result": "down-regulated"}, {"measurement": "tolerability in patients", "setting": "[4]", "result": "well tolerated"}, {"measurement": "SLUG transcription factor levels", "setting": "A549 and H2009 cells [5]", "result": "significantly decreased"}, {"measurement": "PDO sensitivity", "setting": "[6]; PDOs from tumors with high AXL and JAK1", "result": "sensitive"}, {"measurement": "PDO response (cell viability)", "setting": "[6]; PDOs of Pt 008 and 010 (Category I/II), TP-0903 20 nmol/L or ruxolitinib 15 μmol/L, 72 hr", "result": "did not respond robustly"}]}]}
